From PMC5270475, “Structural Characterization and Ligand/Inhibitor Identification Provide Functional Insights into the Mycobacterium tuberculosis Cytochrome P450 CYP126A1” (The Journal of Biological Chemistry, 2016) come the findings set out here.

By Kd is commonly meant a measure of binding affinity in units of concentration.

The target in the experiment is T1, CYP126A1 (Mycobacterium tuberculosis, UniProt P9WPN9).
T1 construct: gene cyp126
T1 sequence (P9WPN9 whole entry): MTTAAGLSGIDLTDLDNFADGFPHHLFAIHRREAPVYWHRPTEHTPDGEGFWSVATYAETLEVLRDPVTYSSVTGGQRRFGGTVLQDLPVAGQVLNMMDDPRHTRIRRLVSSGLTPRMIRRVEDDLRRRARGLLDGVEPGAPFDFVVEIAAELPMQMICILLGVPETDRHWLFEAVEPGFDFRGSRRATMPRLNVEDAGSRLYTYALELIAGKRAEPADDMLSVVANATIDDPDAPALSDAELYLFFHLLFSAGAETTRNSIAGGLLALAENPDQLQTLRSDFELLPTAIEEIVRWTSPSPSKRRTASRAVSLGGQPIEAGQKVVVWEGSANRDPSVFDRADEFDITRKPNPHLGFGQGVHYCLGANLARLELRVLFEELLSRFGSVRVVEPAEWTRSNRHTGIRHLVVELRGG
As to the kind of experiment: UV-visible absorbance titration (heme Soret shift). In kind it is binding.
With `CC(=O)N1CCN(c2ccc(OC[C@H]3CO[C@](Cn4ccnc4)(c4ccc(Cl)cc4Cl)O3)cc2)CC1` (racemic) [Ketoconazole], the Kd stood at 0.34 ± 0.07 µM.

Regarding `Clc1ccccc1C(c1ccccc1)(c1ccccc1)n1ccnc1` [Clotrimazole], the Kd was 3.9 ± 0.4 µM.

With `Clc1ccc(COC(Cn2ccnc2)c2ccc(Cl)cc2Cl)cc1` (centres unmarked) [Econazole], the Kd is 4 ± 0.6 µM.

As to `c1c[nH]cn1` [Imidazole], the Kd is 2590 ± 60 µM.

As to `Clc1ccc(COC(Cn2ccnc2)c2ccc(Cl)cc2Cl)c(Cl)c1` (centres unmarked) [Miconazole], the Kd amounted to 1.3 ± 0.2 µM.

For `O=C(NCCCn1ccnc1)NC12CC3CC(CC(C3)C1)C2` [compound 7, Compound 7], the Kd came out at 4.13 ± 0.61 µM.

`Cn1c(-c2ccc(-c3nc4ccccc4[nH]3)cc2)nc2cc(N)ccc21` [compound 8, Compound 8]: the Kd is 11 ± 0.6 µM.

In the case of `O=C(O)C1CSC(c2cc3ccccc3nc2Cl)N1` (centres unmarked) [compound 9, Compound 9], the Kd came out at 16.4 ± 0.7 µM.
